pIC50: −log10 of the molar value.
How the values were obtained:
MDA-MB-468 = test: Antiproliferative activity against human MDA-MB-468 cells assessed as reduction in cell viability after 72 hrs by MTT assay; assay type: functional, cell-based; conditions: MDA-MB-468, 72 h
MDA-MB-231 = test: Antiproliferative activity against human MDA-MB-231 cells assessed as reduction in cell viability after 72 hrs by MTT assay; assay type: functional, cell-based; conditions: MDA-MB-231, 72 h
T47D = test: Antiproliferative activity against human T47D cells assessed as reduction in cell viability after 72 hrs by MTT assay; assay type: functional, cell-based
HCT-15 = test: Antiproliferative activity against human HCT15 cells assessed as reduction in cell viability after 72 hrs by MTT assay; assay type: functional, cell-based; conditions: HCT-15, 72 h
HT-29 = test: Antiproliferative activity against human HT-29 cells assessed as reduction in cell viability after 72 hrs by MTT assay; assay type: functional, cell-based; conditions: HT-29, 72 h
HeLa = test: Antiproliferative activity against human HeLa cells assessed as reduction in cell viability after 72 hrs by MTT assay; assay type: functional, cell-based
HUVEC = test: Cytotoxicity against HUVEC assessed as reduction in cell viability after 72 hrs by MTT assay; assay type: cell-based; conditions: Homo sapiens

Row | SMILES | pIC50 (MDA-MB-468) | pIC50 (MDA-MB-231) | pIC50 (T47D) | pIC50 (HCT-15) | pIC50 (HT-29) | pIC50 (HeLa) | pIC50 (HUVEC)
1 | CCCn1ccnc1-c1cc(OC)c(OC)c(OC)c1 | < 4.00 | < 4.00 | < 4.00 | < 4.00 | < 4.00 | < 4.00 | 
2 | CCCCCn1ccnc1-c1cc(OC)c(OC)c(OC)c1 | 4.24 | 4.47 | 4.19 | < 4.00 | 4.22 | < 4.00 | 
3 | COc1ccc(C(=O)Nc2cc(OC)c(OC)c(OC)c2)cc1N | < 4.00 | 4.03 | < 4.00 | < 4.00 | < 4.00 | < 4.00 | 
4 | COc1cc(-c2nccn2S(=O)(=O)c2ccccc2)cc(OC)c1OC | < 4.00 | < 4.00 | < 4.00 | < 4.00 | < 4.00 | < 4.00 | 
5 | COc1cc(-c2nccn2CC(C)C)cc(OC)c1OC | < 4.00 | < 4.00 | < 4.00 | < 4.00 | < 4.00 | < 4.00 | 
6 | COc1cc(-c2nccn2C)cc(OC)c1OC | < 4.00 | < 4.00 | < 4.00 | < 4.00 | < 4.00 | < 4.00 | 
7 | COc1cc(-c2nccn2-c2ccc(F)cc2)cc(OC)c1OC | 4.21 | 4.42 | < 4.00 | 4.16 | 4.53 | 4.76 | 
8 | COc1cc(-c2nccn2S(=O)(=O)c2ccc(C)cc2)cc(OC)c1OC | < 4.00 | < 4.00 | < 4.00 | < 4.00 | < 4.00 | < 4.00 | 
9 | COc1ccc(OC(=O)c2cc(OC)c(OC)c(OC)c2)cc1[N+](=O)[O-] | < 4.00 | < 4.00 | < 4.00 | < 4.00 | < 4.00 | < 4.00 | 
10 | COc1cc(-c2nccn2Cc2ccccc2)cc(OC)c1OC | < 4.00 | < 4.00 | < 4.00 | < 4.00 | < 4.00 | < 4.00 | 
11 | COc1ccc(OC(=O)c2cc(OC)c(OC)c(OC)c2)cc1N | < 4.00 | < 4.00 | < 4.00 | < 4.00 | < 4.00 | < 4.00 | 
12 | COc1ccc(C(=O)Oc2cc(OC)c(OC)c(OC)c2)cc1N | < 4.00 | < 4.00 | < 4.00 | < 4.00 | < 4.00 | < 4.00 | 
13 | COc1cc(-c2nccn2C(C)C)cc(OC)c1OC | < 4.00 | < 4.00 | < 4.00 | < 4.00 | < 4.00 | < 4.00 | 
14 | CCn1ccnc1-c1cc(OC)c(OC)c(OC)c1 | < 4.00 | < 4.00 | < 4.00 | < 4.00 | < 4.00 | < 4.00 | 

More lines, in order of rising pIC50 (MDA-MB-468), values ahead:

Row | pIC50 (MDA-MB-468) | pIC50 (MDA-MB-231) | pIC50 (T47D) | pIC50 (HCT-15) | pIC50 (HT-29) | pIC50 (HeLa) | SMILES | pIC50 (HUVEC)
15 | 4.24 | 4.34 | < 4.00 | < 4.00 | 4.13 | 4.38 | COc1cc(OC)cc(-n2ccnc2-c2cc(OC)c(OC)c(OC)c2)c1 | 
16 | 4.36 | 4.15 | < 4.00 | < 4.00 | < 4.00 | < 4.00 | CCCCn1ccnc1-c1cc(OC)c(OC)c(OC)c1 | 
17 | 4.45 | < 4.00 | 4.53 | < 4.00 | < 4.00 | < 4.00 | COc1ccc(C(=O)Oc2cc(OC)c(OC)c(OC)c2)cc1[N+](=O)[O-] | 
18 | 4.65 | 4.93 | 4.53 | 5.80 | 4.84 | 5.72 | COc1cc(-c2nccn2-c2cccc(C)c2)cc(OC)c1OC | < 4.00
19 | 4.98 | 4.74 | 4.49 | 4.77 | 4.72 | 4.96 | COc1cccc(-n2ccnc2-c2cc(OC)c(OC)c(OC)c2)c1 | 
20 | 5.14 | < 4.00 | 4.75 | < 4.00 | < 4.00 | 5.17 | COc1cc(-c2nccn2-c2cccc([N+](=O)[O-])c2)cc(OC)c1OC | < 4.00
21 | 5.21 | 5.10 | 4.82 | 4.60 | 4.83 | 4.51 | COc1cc(-c2nccn2-c2cccc3ccccc23)cc(OC)c1OC | 
22 | 5.52 | 5.24 | 5.22 | 5.70 | 5.08 | 5.43 | COc1ccc(C(=O)Nc2cc(OC)c(OC)c(OC)c2)cc1[N+](=O)[O-] | 
23 | 5.54 | 4.51 | 4.46 | 4.75 | 5.01 | 4.41 | COc1ccc(NC(=O)c2cc(OC)c(OC)c(OC)c2)cc1[N+](=O)[O-] | 
24 | 5.57 | 5.08 | 4.61 | 4.93 | 5.11 | 5.48 | COc1cc(-c2nccn2-c2ccc(Br)cc2)cc(OC)c1OC | < 4.00
25 | 5.64 | 5.37 | 5.68 | 5.34 | 5.04 | 5.36 | COc1cc(-c2nccn2-c2ccc3[nH]ccc3c2)cc(OC)c1OC | 4.33
26 | 5.70 | 4.73 | 4.30 | 5.19 | 5.92 | 5.39 | COc1ccc(NC(=O)c2cc(OC)c(OC)c(OC)c2)cc1N | 
27 | 5.77 | 5.12 | 4.74 | 5.40 | 5.44 | 5.32 | COc1cc(-c2nccn2-c2ccc3cc[nH]c3c2)cc(OC)c1OC | 4.40
28 | 6.30 | 5.57 | 5.85 | 5.89 | 4.88 | 5.92 | COc1ccc(-n2ccnc2-c2cc(OC)c(OC)c(OC)c2)cc1 | < 4.30
29 | 6.40 | 4.77 | 4.77 | 5.48 | 5.82 | 5.85 | COc1cc(-c2nccn2-c2ccc3sccc3c2)cc(OC)c1OC | 
30 | 6.40 | 5.39 | 4.69 | 6.10 | 5.80 | 6.15 | COc1cc(-c2nccn2-c2ccc(C)cc2)cc(OC)c1OC | < 4.00
31 | 6.52 | 5.72 | 4.27 | 6.70 | 4.77 | 7.00 | COc1ccc(-n2ccnc2-c2cc(OC)c(OC)c(OC)c2)cc1O | 4.27
32 | 7.00 | 5.12 | 5.00 | 6.00 | 6.22 | 5.60 | COc1ccc(-n2ccnc2-c2cc(OC)c(OC)c(OC)c2)cc1[N+](=O)[O-] | 
